This note sets out measurements from US7608581B2, “Biofunctional, antimicrobial coatings for medical devices” (Affinergy, Inc., priority 2004, dated 2009).

The conditions of the experiment: as compared to SEQ ID NO:73 (two cysteines substituted by serine).

With SDKSHKHWYSYESKYGGS [SEQ ID NO:74], the “reduction in binding affinity” value turned out to be 10 fold.
